According to ChEMBL document CHEMBL1129621, “Novel 5-aminoflavone derivatives as specific antitumor agents in breast cancer” (J Med Chem, 1996):

Assays:
MCF7 [1] = experiment: cells; format: functional, cell-based; settings: Homo sapiens
Description: Anti-proliferative activity against estrogen-responsive human breast cancer cell line MCF-7 in the presence of ER at a 10e-4 uM concentration of estradiol

MCF7 [2] = experiment: cells; format: functional, cell-based; settings: Homo sapiens; remark: listed apart in the source
Description: Inhibition of 10e-4 uM estradiol induced estrogen receptor positive MCF-7 human breast cancer cell proliferation

Estrogen receptor = Estrogen receptor (Homo sapiens, UniProt Q92731+P03372)
Description: Binding affinity for estrogen receptor, by competition with [3H]estradiol

HeLa [3] = experiment: Inhibition of […]e-2 uM estradiol induced human cancer cell HeLa S3 proliferation; format: functional, cell-based
WiDr [4] = experiment: Inhibition of WiDr human cancer cell proliferation; format: functional, cell-based
MCF7 [5] = experiment: Inhibition of estrogen receptor positive MCF-7 human breast cancer cell proliferation; format: functional, cell-based
MDA-MB-453 [6] = experiment: Inhibition of estrogen receptor negative MDA-MB-453 breast cancer cell proliferation; format: functional, cell-based; settings: Homo sapiens
HeLa [7] = experiment: cells; settings: Homo sapiens
Description: Inhibition of 10e-2 uM estradiol induced human cancer cell HeLa S3 proliferation

WiDr [8] = experiment: Inhibition of WiDr human cancer cell proliferation with 10e-2 uM estradiol; format: functional, cell-based
MDA-MB-453 [9] = experiment: cells; settings: Homo sapiens
Description: Inhibition of estrogen receptor negative MDA-MB-453 breast cancer cell proliferation with 10e-4 M estradiol

SMILES	IC50 (MCF7 [1]) [µM]	IC50 (MCF7 [2]) [µM]	IC50 (Estrogen receptor) [µM]	also measured
CN(C)c1ccc(-c2cc(=O)c3ccc(N)cc3o2)cc1	5	6.9		
Nc1cccc2oc(-c3ccc(Br)cc3)cc(=O)c12	1	9.5	> 100	
Nc1cccc2oc(-c3ccc(O)cc3)cc(=O)c12	1.5	> 100	18	
CCN(CC)c1ccc(-c2cc(=O)c3c(N)cccc3o2)cc1	0.002	0.01		
N#Cc1ccc(-c2cc(=O)c3c(N)cccc3o2)cc1	> 100	94	> 100	
CC(=O)Nc1ccc(-c2cc(=O)c3c(N)cccc3o2)cc1	13	18	> 100	
CN(C)c1ccc(-c2cc(=O)c3c(N)cccc3o2)cc1	0.004	0.005	> 100	
CN(C)c1cccc(-c2cc(=O)c3cc(N)ccc3o2)c1	13	13		
CCCCNc1ccc(-c2cc(=O)c3c(N)cccc3o2)cc1	0.0051	0.0087	> 100	
CN(C)c1ccc(-c2cc(=O)c3cc(N)ccc3o2)cc1	0.013	0.035		
Nc1cccc(-c2cc(=O)c3c(N)cccc3o2)c1	27	> 100		
Nc1cccc2oc(-c3ccc(NCc4ccccc4)cc3)cc(=O)c12	4.1	4.3	> 100	
CCNc1ccc(-c2cc(=O)c3c(N)cccc3o2)cc1	0.0013	0.0017	> 100	IC50 (HeLa [3]): > 10 µM; IC50 (WiDr [4]): > 10 µM; IC50 (MCF7 [5]): 0.092 µM
COc1ccc(-c2cc(=O)c3c(N)cccc3o2)cc1	12	> 100	> 100	
Nc1cccc2oc(-c3ccc(C(=O)O)cc3)cc(=O)c12	> 10	> 10		
CNc1ccc(-c2cc(=O)c3c(N)cccc3o2)cc1	0.0023	0.0054	> 100	IC50 (HeLa [3]): 6.3 µM; IC50 (WiDr [4]): > 10 µM; IC50 (MCF7 [5]): 0.076 µM
CN(C)c1ccc(-c2cc(=O)c3cccc(N)c3o2)cc1	0.021	2		
CCCCCCNc1ccc(-c2cc(=O)c3c(N)cccc3o2)cc1	0.075	0.44		
CCCNc1ccc(-c2cc(=O)c3c(N)cccc3o2)cc1	0.0067	0.0087	> 100	
Nc1cccc2oc(-c3ccccc3)cc(=O)c12	13	> 100	> 100	
Nc1ccc(-c2cc(=O)c3c(N)cccc3o2)cc1	0.0072	0.0098	> 100	IC50 (HeLa [3]): > 10 µM; IC50 (WiDr [4]): > 10 µM; IC50 (MDA-MB-453 [6]): > 5 µM; IC50 (MCF7 [5]): 0.052 µM
O=c1cc(-c2ccc(O)cc2)oc2cc(O)cc(O)c12 [APIGENIN]	> 100	95		
COc1cccc2c1C(=O)c1c(O)c3c(c(O)c1C2=O)C[C@@](O)(C(=O)CO)C[C@@H]3O[C@H]1C[C@H](N)[C@H](O)[C@H](C)O1 [DOXORUBICIN]				IC50 (HeLa [7]): 0.03 µM; IC50 (WiDr [8]): 0.62 µM
O=c1c(-c2ccc(O)cc2)coc2cc(O)cc(O)c12 [GENISTEIN]	11	77		
CC/C(=C(\c1ccccc1)c1ccc(OCCN(C)C)cc1)c1ccccc1 [TAMOXIFEN]	0.14	19		IC50 (MDA-MB-453 [9]): > 5 µM
